# Results taken from patent US20130204033A1, “ANTIPROLIFERATIVE COMPOUNDS, CONJUGATES THEREOF, METHODS THEREFOR, AND USES THEREOF” (Medarex, Inc., priority 2009, published 2013).
# Read-outs that look alike come from different tables or passages of the source.
# What was measured:
# Type in all cases: cell-based, human
# [1] = tested on: Raji; assay: 3H thymidine proliferation assay, Raji
# Procedure, shortened: (§1)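 Seeding: 1.0×10^4 cells/well, 3 h. Dosing: 1:3 serial dilutions, 72 h. Label: ^3H-thymidine 1.0 μCi/well for last 24 h, scintillation read; EC50 = 50% proliferation reduction.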
# [2] = tested on: HPAC; assay: 3H thymidine proliferation assay, HPAC
# Procedure, shortened: as §1
# [3] = tested on: HPAC; assay: ATP luminescence proliferation assay, HPAC
# Description: (§2) This example generally describes the procedures used to assay the antiproliferative activity of compounds of this invention or their conjugates. Human tumor cell lines were obtained from the American Type Culture Collection (ATCC), P.O. Box 1549, Manassas, Va. 20108, USA, and cultured according to instruction from the ATCC. Cells were seeded at 1.0×10^3 or 1.0×10^4 cells/well in 96-well plates for 3 h for ATP assays or ^3H thymidine assays, respectively. 1:3 serial dilutions of free (unconjugated) compounds or their conjugates were added to the wells. Plates were allowed to incubate for 24 to 72 h. The ^3H thymidine plates were pulsed with 1.0 μCi of ^3H-thymidine per well for the last 24 hours of the total incubation period, harvested, and read on a Top Count Scintillation Counter (Packard Instruments, Meriden, Conn.). ATP levels in the ATP plates were measured using the […]-GLO® Luminescent Cell Viability kit following the manufacturer's manual and read on a GLOMAX® 20/20 luminometer (both from Promega, Madison, Wis., USA). The EC50 values—the concentration at which an agent inhibits or reduces cell proliferation by 50% —were determined using PRISM™ software, version 4.0 (GraphPad Software, La Jolla, Calif., USA).
# (§3) Using the ^3H thymidine or the ATP luminescence assay, or both, the activities of compounds of this invention were assayed against the following cancer cell lines: HCT-15 (colorectal cancer, multi-drug resistant (MDR)); Hep3B (liver cancer); LNCaP (prostate cancer, androgen receptor positive (AR^+)); MDA-MB-231 (breast cancer, estrogen receptor, progesterone receptor, and Her2 negative (triple negative)); A2058 (melanoma); U-87 MG (glioblastoma); NCI-H460 (NSCLC); A549 (NSCLC); HPAC (pancreatic cancer, primary); PC3 (prostate cancer, AR); BT474 (breast cancer, Her2 highly positive (Her2hi)); SKOV3 (ovarian cancer, Her2hi); 786-O (renal cancer); UO-31 (renal cancer, MDR); NCI-H740 (SCLC); DMS53 (SCLC); SK-BR3 (breast cancer, Her2hi); ZR-75 (breast cancer, estrogen receptor positive); OVCAR3 (ovarian cancer); HL-60 (APL); OVCAR8/Adr (ovarian cancer, MDR); CEM-Cl (ALL); Nomo-1 (AML); RPMI-8226 (MM)); Raji (lymphoma); SW-480 (colorectal cancer, metastatic); SW-620 (colorectal cancer); and H226 (lung cancer). (Not all compounds were assayed against all cell lines.)
# (§4) Table 3 provides the data for the ATP luminescence proliferation assays, with an incubation period of 48, 72, or 96 h, as noted.
# [4] = tested on: ZR-75; assay: ATP luminescence proliferation assay, ZR-75
# Description: as §2, §3, §4
# [5] = tested on: SK-BR3; assay: 3H thymidine proliferation assay, SK-BR3; details: 3H thymidine method, 72 h incubation
# Procedure, shortened: as §1
# [6] = tested on: 786-O; assay: 3H thymidine proliferation assay, 786-O
# Procedure, shortened: as §1
# [7] = tested on: OVCAR3; assay: 3H thymidine proliferation assay, OVCAR3
# Procedure, shortened: as §1
# [8] = tested on: UO-31; assay: 3H thymidine proliferation assay, UO-31
# Procedure, shortened: as §1
# [9] = tested on: MDA-MB-231; assay: ATP luminescence proliferation assay, MDA-MB-231
# Description: as §2, §3, §4
# [10] = tested on: HCT-15; assay: ATP luminescence proliferation assay, HCT-15
# Procedure, shortened: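 Cells seeded at 1.0×10^3 cells/well for 3 h, then exposed to 1:3 serial dilutions of free compounds or conjugates for 48, 72 or 96 h as noted. ATP measured by Glo luminescent viability kit; EC50 taken as concentration reducing proliferation by 50%.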
# [11] = tested on: U-87 MG; assay: 3H thymidine proliferation assay, U-87 MG
# Procedure, shortened: as §1
# [12] = tested on: U-87 MG; assay: ATP luminescence proliferation assay, U-87 MG
# Description: as §2, §3, §4
# [13] = tested on: Raji; assay: ATP luminescence proliferation assay, Raji
# Description: as §2, §3, §4
# [14] = tested on: LNCaP; assay: 3H thymidine proliferation assay, LNCaP
# Procedure, shortened: as §1
# [15] = tested on: SK-BR3; assay: ATP luminescence proliferation assay, SK-BR3
# Description: as §2, §3, §4
# [16] = tested on: DMS53; assay: ATP luminescence proliferation assay, DMS53
# Description: as §2, §3, §4
# [17] = tested on: A2058; assay: 3H thymidine proliferation assay, A2058; details: 3H thymidine method, 72 h incubation
# Procedure, shortened: as §1
# [18] = tested on: HL-60; assay: 3H thymidine proliferation assay, HL-60
# Procedure, shortened: as §1
# [19] = tested on: RPMI-8226; assay: 3H thymidine proliferation assay, RPMI-8226
# Procedure, shortened: as §1
# [20] = tested on: BT474; assay: 3H thymidine proliferation assay, BT474
# Procedure, shortened: as §1
structure (smiles),measurement,setting,value
CCC[C@H](NC(=O)[C@H](Cc1ccccc1)NC(=O)c1csc([C@@H](C[C@H](C(C)C)N(C)C(=O)[C@@H](NC(=O)[C@H]2CCCCN2C)[C@@H](C)CC)OC)n1)C(=O)OC [Compound 19],EC50,"[1]; 3H thymidine method, 72 h incubation, read-out: EC50, Raji",0.032 µM
same,EC50,"[2]; 3H thymidine method, 72 h incubation, read-out: EC50, HPAC",> 0.1 µM
same,EC50,"[3]; ATP luminescence, 72 h incubation, read-out: EC50 HPAC (72 h)",0.00033 µM
same,EC50,"[4]; ATP luminescence, ZR-75, 48 h incubation, read-out: EC50 ZR-75 (48 h)",0.02 µM
same,EC50,[5],> 0.1 µM
same,EC50,"[6]; 3H thymidine method, 72 h incubation, read-out: EC50, 786-O",> 0.1 µM
same,EC50,"[7]; 3H thymidine method, 72 h incubation, read-out: EC50, OVCAR3",0.053 µM
same,EC50,"[8]; 3H thymidine method, 72 h incubation, read-out: EC50, UO-31",> 0.1 µM
same,EC50,"[9]; ATP luminescence, MDA-MB-231, 72 h incubation, read-out: EC50 MDA-MB-231 (72 h)",0.032 µM
same,EC50,"[10]; ATP luminescence, HCT-15, 72 h incubation, read-out: EC50 HCT-15 (72 h)",0.245 µM
same,EC50,"[11]; 3H thymidine method, 72 h incubation, read-out: EC50, U-87 MG",> 0.1 µM
same,EC50,"[12]; ATP luminescence, 72 h incubation, read-out: EC50 U-87 MG (72 h)",> 0.1 µM
same,EC50,"[13]; ATP luminescence, 72 h incubation, read-out: EC50 Raji (72 h)",0.0092 µM
same,EC50,"[14]; 3H thymidine method, 72 h incubation, read-out: EC50, LNCaP",> 0.1 µM
same,EC50,"[15]; ATP luminescence, SK-BR3, 48 h incubation, read-out: EC50 SK-BR3 (48 h)",0.0039 µM
same,EC50,"[16]; ATP luminescence, DMS53, 72 h incubation, read-out: EC50 DMS53 (72 h)",0.087 µM
same,EC50,[17],0.00013 µM
same,EC50,"[18]; 3H thymidine method, 72 h incubation, read-out: EC50, HL-60",0.037 µM
same,EC50,"[19]; 3H thymidine method, 72 h incubation, read-out: EC50, RPMI-8226",0.023 µM
same,EC50,"[20]; 3H thymidine method, 72 h incubation, read-out: EC50, BT474",> 0.1 µM
CC[C@H](C)[C@H](NC(=O)[C@H]1CCCCN1C)C(=O)N(C)[C@H](C[C@@H](OC(C)=O)c1nc(C(=O)N[C@@H](Cc2ccc(N)cc2)CC(C)C(=O)O)cs1)C(C)C (stereo partly shown) [Compound 36],EC50,"[1]; Homo sapiens, Raji, read-out: EC50, Raji, 3H thymidine method, 72 h incubation",0.015 µM
same,EC50,"[2]; Homo sapiens, HPAC, read-out: EC50, HPAC, 3H thymidine method, 72 h incubation",0.083 µM
same,EC50,"[3]; Homo sapiens, 72 h, read-out: EC50 HPAC (72 h), ATP luminescence, HPAC, 72 h incubation",0.0029 µM
same,EC50,"[4]; Homo sapiens, ZR75, 48 h, read-out: EC50 ZR-75 (48 h), ATP luminescence, ZR-75, 48 h incubation",> 0.3 µM
same,EC50,"[5]; Homo sapiens, SK-BR-3",> 0.1 µM
same,EC50,"[6]; Homo sapiens, 786-0, read-out: EC50, 786-O, 3H thymidine method, 72 h incubation",> 0.1 µM
same,EC50,"[7]; Homo sapiens, OVCAR-3, read-out: EC50, OVCAR3, 3H thymidine method, 72 h incubation",> 0.1 µM
same,EC50,"[8]; Homo sapiens, UO-31, read-out: EC50, UO-31, 3H thymidine method, 72 h incubation",> 0.1 µM
same,EC50,"[9]; Homo sapiens, MDA-MB-231, 72 h, read-out: EC50 MDA-MB-231 (72 h), ATP luminescence, MDA-MB-231, 72 h incubation",0.0096 µM
same,EC50,"[10]; Homo sapiens, HCT-15, 72 h, read-out: EC50 HCT-15 (72 h), ATP luminescence, HCT-15, 72 h incubation",0.096 µM
same,EC50,"[11]; Homo sapiens, U-87 MG, read-out: EC50, U-87 MG, 3H thymidine method, 72 h incubation",0.015 µM
same,EC50,"[12]; Homo sapiens, 72 h, read-out: EC50 U-87 MG (72 h), ATP luminescence, U-87 MG, 72 h incubation",0.037 µM
same,EC50,"[13]; Homo sapiens, 72 h, read-out: EC50 Raji (72 h), ATP luminescence, Raji, 72 h incubation",0.024 µM
same,EC50,"[14]; Homo sapiens, LNCaP, read-out: EC50, LNCaP, 3H thymidine method, 72 h incubation",0.342 µM
same,EC50,"[15]; Homo sapiens, SK-BR-3, 48 h, read-out: EC50 SK-BR3 (48 h), ATP luminescence, SK-BR3, 48 h incubation",> 0.3 µM
same,EC50,"[16]; Homo sapiens, DMS-53, 48 h, read-out: EC50 DMS53 (48 h), ATP luminescence, DMS53, 48 h incubation",~0.3 µM
same,EC50,"[17]; Homo sapiens, A2058",0.06 µM
same,EC50,"[18]; Homo sapiens, HL-60, read-out: EC50, HL-60, 3H thymidine method, 72 h incubation",0.107 µM
same,EC50,"[19]; Homo sapiens, RPMI-8226, read-out: EC50, RPMI-8226, 3H thymidine method, 72 h incubation",0.048 µM
same,EC50,"[20]; Homo sapiens, BT-474, read-out: EC50, BT474, 3H thymidine method, 72 h incubation",> 0.1 µM
